In patent US9320270B2, “Method of field application of natural pesticides with reduced toxicity and high efficacy by means of microencapsulation” (priority 2009, dated 2016):

Experiment: decomposition during emulsification at 70° C.
Assay type: physicochemical
Conditions: without antioxidants and weak acids
Procedure: The process of microencapsulation is performed adding the oil phase to the first water phase under high shear stress, being emulsified at 70° C.

For abamectin, the decomposition during emulsification was 5-25%.
